The values that follow come from BindingDB's records for doi:10.1021/acs.jmedchem.7b01670 (Vrije Universiteit Amsterdam, 2018).

For one assay, the target named is T1, Phosphodiesterase (Trypanosoma brucei, UniProt Q8WQX9).
T1 sequence (Q8WQX9 whole entry): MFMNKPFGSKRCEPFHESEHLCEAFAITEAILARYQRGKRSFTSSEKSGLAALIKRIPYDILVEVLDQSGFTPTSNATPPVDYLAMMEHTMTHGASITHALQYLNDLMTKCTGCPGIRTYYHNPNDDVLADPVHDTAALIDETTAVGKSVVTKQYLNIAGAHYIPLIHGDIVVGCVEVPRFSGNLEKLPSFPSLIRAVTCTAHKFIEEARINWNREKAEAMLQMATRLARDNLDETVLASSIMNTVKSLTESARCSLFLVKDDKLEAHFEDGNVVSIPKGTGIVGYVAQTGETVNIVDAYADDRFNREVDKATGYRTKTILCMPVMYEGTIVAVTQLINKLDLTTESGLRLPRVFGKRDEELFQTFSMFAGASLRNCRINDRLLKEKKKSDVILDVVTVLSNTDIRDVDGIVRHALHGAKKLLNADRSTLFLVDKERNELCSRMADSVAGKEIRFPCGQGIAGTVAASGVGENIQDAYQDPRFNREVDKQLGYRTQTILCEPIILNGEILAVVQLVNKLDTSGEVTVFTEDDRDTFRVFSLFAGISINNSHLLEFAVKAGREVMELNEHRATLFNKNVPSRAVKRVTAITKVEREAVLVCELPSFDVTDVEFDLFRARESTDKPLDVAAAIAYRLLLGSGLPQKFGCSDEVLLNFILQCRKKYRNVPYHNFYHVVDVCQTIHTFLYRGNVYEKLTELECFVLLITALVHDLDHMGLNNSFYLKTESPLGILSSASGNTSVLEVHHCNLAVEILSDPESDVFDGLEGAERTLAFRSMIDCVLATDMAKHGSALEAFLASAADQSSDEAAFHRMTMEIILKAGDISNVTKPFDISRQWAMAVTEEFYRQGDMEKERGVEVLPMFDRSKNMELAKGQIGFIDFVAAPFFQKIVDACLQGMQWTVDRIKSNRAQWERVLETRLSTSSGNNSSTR
Kind of assay: Inhibition of full length Trypanosoma brucei PDEB1 expressed in Sf21 insect cells using cAMP as substrate by scintillation proximity assay. For orientation: Scintillation proximity formats need no separation of bound from free tracer.

In assay [1] the target is cAMP-specific 3',5'-cyclic phosphodiesterase 4B (Homo sapiens, UniProt Q07343). Kind of assay: Inhibition of full length recombinant human PDE4B1 expressed in Sf21 insect cells using cAMP as substrate by scintillation proximity assay.
cAMP-specific 3',5'-cyclic phosphodiesterase 4B, sequence (Q07343 whole entry): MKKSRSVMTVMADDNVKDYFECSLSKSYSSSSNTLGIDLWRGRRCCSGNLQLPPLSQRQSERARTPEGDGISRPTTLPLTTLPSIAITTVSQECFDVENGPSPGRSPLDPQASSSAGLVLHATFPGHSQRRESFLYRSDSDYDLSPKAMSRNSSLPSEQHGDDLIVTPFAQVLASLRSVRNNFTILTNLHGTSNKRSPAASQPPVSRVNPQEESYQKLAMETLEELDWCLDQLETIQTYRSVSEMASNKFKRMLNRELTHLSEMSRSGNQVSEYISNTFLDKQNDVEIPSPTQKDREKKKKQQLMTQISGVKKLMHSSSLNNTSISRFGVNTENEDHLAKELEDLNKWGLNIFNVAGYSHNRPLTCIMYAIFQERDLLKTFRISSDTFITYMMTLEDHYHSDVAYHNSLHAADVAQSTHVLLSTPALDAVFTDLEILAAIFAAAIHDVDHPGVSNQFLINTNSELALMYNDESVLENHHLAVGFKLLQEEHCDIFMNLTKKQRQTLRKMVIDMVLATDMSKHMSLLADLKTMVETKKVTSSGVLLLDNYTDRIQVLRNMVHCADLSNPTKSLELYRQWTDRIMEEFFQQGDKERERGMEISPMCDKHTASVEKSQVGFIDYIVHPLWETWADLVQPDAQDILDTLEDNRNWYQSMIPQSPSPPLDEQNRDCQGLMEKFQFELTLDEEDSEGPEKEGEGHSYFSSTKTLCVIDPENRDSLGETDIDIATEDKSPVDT

Structures are written as SMILES.

On to `COc1ccc(C2=NN(C3CCCCCC3)C(=O)[C@@H]3CC=CC[C@H]23)cc1-c1ccc(C(=O)NCC(N)=O)cc1`, for which the Ki was determined as 40 nM at Phosphodiesterase and 630 nM in assay [1].
`COc1ccc(C2=NN(C3CCCCCC3)C(=O)[C@@H]3CC=CC[C@H]23)cc1-c1ccc(C(=O)N2CNC(=O)C2)cc1`: the Ki (at Phosphodiesterase; in assay [1]) was 631 nM in each case.
Regarding `COc1ccc(C2=NN(C3CCCCCC3)C(=O)[C@@H]3CC=CC[C@H]23)cc1-c1ccc(C(=O)N2CC(=O)N(C)C2)cc1`, the Ki at Phosphodiesterase worked out at 1580 nM; in assay [1], 2510 nM.
The corresponding values for `COc1ccc(C2=NN(C3CCCCCC3)C(=O)[C@@H]3CC=CC[C@H]23)cc1-c1ccc(C(=O)N2CCC(=O)C2)cc1` are 1000 nM and 3160 nM.

For orientation: Ki means a dissociation constant, usually derived from enzyme kinetics or from competition with a known ligand.
